Results on seven compounds are retold here after patent US7943629B2, “Sulphimides as protein kinase inhibitors” (Bayer Schering Pharma AG, priority 2006, dated 2011).

For one experiment, the target named is T1, Aurora-C (Homo sapiens, UniProt Q9UQB9).
T1 construct: made in house; host or cells: transiently transfected HEK293 cells
T1 sequence (Q9UQB9 1-309): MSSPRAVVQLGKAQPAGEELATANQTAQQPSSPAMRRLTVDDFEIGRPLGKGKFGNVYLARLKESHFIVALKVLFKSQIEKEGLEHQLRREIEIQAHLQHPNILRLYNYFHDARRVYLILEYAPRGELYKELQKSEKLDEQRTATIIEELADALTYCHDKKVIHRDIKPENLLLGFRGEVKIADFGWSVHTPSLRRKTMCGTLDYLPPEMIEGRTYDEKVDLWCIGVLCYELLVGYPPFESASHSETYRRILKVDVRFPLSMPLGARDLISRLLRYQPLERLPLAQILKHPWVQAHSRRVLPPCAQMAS
The experiment in a line: Aurora-C kinase assay. The experiment is classed as biochemical. Particulars: 3 μM ATP, 22° C., 90 min. The procedure:
Recombinant Aurora-C protein was expressed in transiently transfected HEK293 cells and then purified. The kinase substrate used was the biotinylated peptide having the amino acid sequence biotin-FMRLRRLSTKYRT, which was purchased from Jerini AG in Berlin.
Aurora-C [5 nM in the test mixture, test volume 5 μl] was incubated in the presence of various concentrations of test substances (0 μM and 10 measurement points within the range 0.001-20 μM in duplicate) in assay buffer [25 mM HEPES pH 7.4, 0.5 mM MnCl2, 0.1 mM Na ortho-vanadate, 2.0 mM dithiothreitol, 0.05% bovine serum albumin (BSA), 0.01% Triton X-100, 3 μM adenosine trisphosphate (ATP), 0.67 nCi/μl gamma-^33P-ATP, 2.0 μM substrate peptide biotin-FMRLRRLSTKYRT, 1.0% dimethyl sulphoxide] at 22° C. for 90 min. The reaction was stopped by adding 12.5 μl of an EDTA/detection solution [16 mM EDTA, 40 mM ATP, 0.08% Triton X-100, 4 mg/ml PVT streptavidin SPA beads (from Amersham)]. After incubation for 10 minutes, the SPA beads were pelleted by centrifugation at 1000×G for 10 minutes. Measurement took place in a PerkinElmer Topcount scintillation counter. The measured data were normalized to 0% inhibition (enzyme reaction without inhibitor) and 100% inhibition (enzyme reaction in the presence of 0.1 μM staurosporine (from Sigma)). The IC50 values were determined by means of a 4-parameter fit using the company's own software.

The target of the next experiment is T2, CDK1/CycB (Homo sapiens, UniProt P06493).
T2 construct: GST; purchased ProQinase GmbH, Freiburg; host or cells: baculovirus-infected insect cells (Sf9)
Nature of the experiment: CDK1/CycB kinase assay. The experiment is classed as biochemical. Particulars: 0.5 μM ATP, histone IIIS, 22° C., 10 min. How it is done: Recombinant CDK1- and CycB-GST fusion proteins, purified from baculovirus-infected insect cells (Sf9), were purchased from ProQinase GmbH, Freiburg. The histone IIIS used as kinase substrate can be purchased from Sigma. CDK1/CycB (200 ng/measurement point) was incubated in the presence of various concentrations of test substances (0 μM, and within the range 0.01-100 μM) in assay buffer [50 mM Tris/HCl pH 8.0, 10 mM MgCl2, 0.1 mM Na ortho-vanadate, 1.0 mM dithiothreitol, 0.5 μM ATP, 10 μg/measurement point histone IIIS, 0.2 μCi/measurement point ^33P-gamma-ATP, 0.05% NP40, 1.25% dimethyl sulphoxide] at 22° C. for 10 min. The reaction was stopped by adding EDTA solution (250 mM, pH 8.0, 15 μl/measurement point).
15 μl of each reaction mixture were loaded onto P30 filter strips (from Wallac), and non-incorporated ^33P-ATP was removed by washing the filter strips three times in 0.5% strength phosphoric acid for 10 min each time. After the filter strips had been dried at 70° C. for 1 hour, the filter strips were covered with scintillator strips (MeltiLex™ A, from Wallac) and baked at 90° C. for 1 hour. The amount of incorporated ^33P (substrate phosphorylation) was determined by scintillation measurement in a gamma radiation counter (Wallac).

A further experiment has as its target T3, CDK2/CycE (Homo sapiens, UniProt P24941).
T3 construct: GST; purchased ProQinase GmbH, Freiburg; host or cells: baculovirus-infected insect cells (Sf9)
Nature of the experiment: CDK2/CycE kinase assay. The experiment is classed as biochemical. Particulars: 0.5 μM ATP, histone IIIS, 22° C., 10 min. How it is done:
Recombinant CDK2- and CycE-GST fusion proteins, purified from baculovirus-infected insect cells (Sf9), were purchased from ProQinase GmbH, Freiburg. The histone IIIS used as kinase substrate was purchased from Sigma.
CDK2/CycE (50 ng/measurement point) was incubated in the presence of various concentrations of test substances (0 μM, and within the range 0.01-100 μM) in assay buffer [50 mM Tris/HCl pH 8.0, 10 mM MgCl2, 0.1 mM Na ortho-vanadate, 1.0 mM dithiothreitol, 0.5 μM ATP, 10 μg/measurement point histone IIIS, 0.2 μCi/measurement point ^33P-gamma-ATP, 0.05% NP40, 1.25% dimethyl sulphoxide] at 22° C. for 10 min. The reaction was stopped by adding EDTA solution (250 mM, pH 8.0, 15 μl/measurement point).
15 μl of each reaction mixture were loaded onto P30 filter strips (from Wallac), and non-incorporated ^33P-ATP was removed by washing the filter strips three times in 0.5% strength phosphoric acid for 10 min each time.
After the filter strips had been dried at 70° C. for 1 hour, the filter strips were covered with scintillator strips (MeltiLex™ A, from Wallac) and baked at 90° C. for 1 hour. The amount of incorporated ^33P (substrate phosphorylation) was determined by scintillation measurement in a gamma radiation counter (Wallac).

The target of another experiment is T4, KDR (VEGFR2) (Homo sapiens, UniProt P35968).
T4 construct: made in house; host or cells: E. coli
The experiment in a line: KDR kinase assay. The experiment is classed as biochemical. Particulars: 10 μM ATP, 22° C., 45 min, HTRF. How it is done: Recombinant KDR protein was expressed in E. coli and then purified. The kinase substrate used was the biotinylated peptide having the amino acid sequence biotin-DFGLARDMYDKEYYSVG, which was purchased from Biosynthan. KDR [test volume 5 μl] was incubated in the presence of various concentrations of test substances (0 μM, and 10 measurement points within the range 0.001-20 μM in duplicate) in assay buffer [50 mM HEPES pH 7.0, 25.0 mM MgCl2, […], 0.1 mM Na ortho-vanadate, 1.0 mM dithiothreitol, 0.001% NP40, 10 μM ATP, 0.03 μM substrate peptide […], 1.0% dimethyl sulphoxide] at 22° C. for 45 min. The reaction was stopped by adding 5 μl of an EDTA/detection solution [50 mM HEPES pH 7.5, 125 mM EDTA, 0.2% BSA, 0.1 μM streptavidin-XLent (from CisBio), 2 nM PT66-Eu (from PerkinElmer)]. The fluorescence emission at 620 nm and 665 nm after excitation with light of the wavelength 350 nm was measured in a Rubystar HTRF instrument from BMG Labsystems.
The measured data (ratio of emission 665 divided by emission 620 multiplied by 10 000) were normalized to 0% inhibition (enzyme reaction without inhibitor) and 100% inhibition (all assay components apart from enzyme). The IC50 values were determined by means of a 4-parameter fit using the company's own software.
Background: Time-resolved FRET reads energy transfer from a long-lived donor to a nearby acceptor.

The test system of a further experiment is MCF7 breast tumour cells. Nature of the experiment: MCF7 proliferation assay. Particulars: for IC50: Homo sapiens, MCF7, 96 h, 4 days incubation, crystal violet staining; for antiproliferative activity, MCF7 (in words): summary of Tab. 2. The experiment is classed as cell-based, human. How it is done: Cultivated human MCF7 breast tumour cells (ATCC HTB-22) were plated out in a density of 5000 cells/measurement point in 200 μl of growth medium (RPMI1640, 10% foetal calf serum, 2 mU/mL insulin, 0.1 nM oestradiol) in a 96-well multititre plate. After 24 hours, the cells from a plate (zero plate) were stained with crystal violet (see below), while the medium in the other plates was replaced by fresh culture medium (200 μl) to which the test substances had been added in various concentrations (0 μM, and in the range 0.1-30 μM; the final concentration of the solvent dimethyl sulphoxide was 0.5%). The cells were incubated in the presence of the test substances for 4 days. The cell proliferation was determined by staining the cells with crystal violet: the cells were fixed by adding 20 μl/measurement point of an 11% strength glutaraldehyde solution at room temperature for 15 min. After the fixed cells had been washed three times with water, the plates were dried at room temperature. The cells were stained by adding 100 μl/measurement point of a 0.1% strength crystal violet solution (pH adjusted to pH 3 by adding acetic acid). After the stained cells had been washed three times with water, the plates were dried at room temperature. The dye was dissolved by adding 100 μl/measurement point of a 10% strength acetic acid solution, and the extinction was determined by photometry at a wavelength of 595 nm. The percentage change in cell growth was calculated by normalizing the measurements to the extinctions of the zero point plate (=0%) and the extinction of the untreated (0 μM) cells (=100%). The IC50 values were determined by means of a 4-parameter fit using the company's own software.

T4 sequence (P35968 20-1356, species assumed): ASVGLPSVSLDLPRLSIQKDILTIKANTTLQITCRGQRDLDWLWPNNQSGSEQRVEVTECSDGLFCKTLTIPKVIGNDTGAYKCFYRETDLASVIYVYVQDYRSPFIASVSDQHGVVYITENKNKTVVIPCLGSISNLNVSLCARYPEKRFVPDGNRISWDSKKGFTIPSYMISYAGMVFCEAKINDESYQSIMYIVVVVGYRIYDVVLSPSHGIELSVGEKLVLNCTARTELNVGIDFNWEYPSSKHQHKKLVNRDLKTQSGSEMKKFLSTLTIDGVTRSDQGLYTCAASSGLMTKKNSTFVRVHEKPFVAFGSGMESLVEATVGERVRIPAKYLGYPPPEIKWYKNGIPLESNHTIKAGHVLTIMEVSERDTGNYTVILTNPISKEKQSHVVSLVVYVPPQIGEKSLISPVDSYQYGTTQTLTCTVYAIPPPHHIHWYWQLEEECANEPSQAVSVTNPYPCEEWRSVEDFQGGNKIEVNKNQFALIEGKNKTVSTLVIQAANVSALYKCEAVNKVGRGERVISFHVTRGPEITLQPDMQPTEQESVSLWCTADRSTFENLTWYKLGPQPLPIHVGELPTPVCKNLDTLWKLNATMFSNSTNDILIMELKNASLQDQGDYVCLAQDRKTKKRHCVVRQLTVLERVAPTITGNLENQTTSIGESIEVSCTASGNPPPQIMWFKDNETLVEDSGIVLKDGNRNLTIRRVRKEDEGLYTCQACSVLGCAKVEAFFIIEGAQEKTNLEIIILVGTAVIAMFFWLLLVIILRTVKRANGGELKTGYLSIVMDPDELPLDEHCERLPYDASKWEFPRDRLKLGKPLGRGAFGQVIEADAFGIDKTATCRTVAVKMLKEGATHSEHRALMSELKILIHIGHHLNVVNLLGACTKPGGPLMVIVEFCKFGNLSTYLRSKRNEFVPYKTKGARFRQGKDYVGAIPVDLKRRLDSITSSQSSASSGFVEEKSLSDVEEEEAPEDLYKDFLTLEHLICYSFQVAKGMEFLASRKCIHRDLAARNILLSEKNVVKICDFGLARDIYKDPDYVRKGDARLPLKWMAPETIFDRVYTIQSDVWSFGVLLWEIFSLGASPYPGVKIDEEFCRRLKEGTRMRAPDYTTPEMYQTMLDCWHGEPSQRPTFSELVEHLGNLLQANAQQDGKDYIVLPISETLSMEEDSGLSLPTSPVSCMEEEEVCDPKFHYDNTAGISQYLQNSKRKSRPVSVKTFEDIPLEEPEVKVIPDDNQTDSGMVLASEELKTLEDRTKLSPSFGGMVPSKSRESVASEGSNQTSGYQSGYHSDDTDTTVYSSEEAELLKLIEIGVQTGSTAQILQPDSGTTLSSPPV
T2 sequence (P06493 whole entry): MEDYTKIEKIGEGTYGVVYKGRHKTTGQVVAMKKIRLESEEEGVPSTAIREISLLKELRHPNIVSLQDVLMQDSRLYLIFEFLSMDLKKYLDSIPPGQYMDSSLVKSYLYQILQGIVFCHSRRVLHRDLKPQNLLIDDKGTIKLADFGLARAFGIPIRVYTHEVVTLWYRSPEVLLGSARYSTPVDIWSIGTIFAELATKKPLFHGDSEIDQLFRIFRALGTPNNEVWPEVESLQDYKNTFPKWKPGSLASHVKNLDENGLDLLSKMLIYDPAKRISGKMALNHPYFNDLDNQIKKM
T2 sequence (P14635 whole entry partner): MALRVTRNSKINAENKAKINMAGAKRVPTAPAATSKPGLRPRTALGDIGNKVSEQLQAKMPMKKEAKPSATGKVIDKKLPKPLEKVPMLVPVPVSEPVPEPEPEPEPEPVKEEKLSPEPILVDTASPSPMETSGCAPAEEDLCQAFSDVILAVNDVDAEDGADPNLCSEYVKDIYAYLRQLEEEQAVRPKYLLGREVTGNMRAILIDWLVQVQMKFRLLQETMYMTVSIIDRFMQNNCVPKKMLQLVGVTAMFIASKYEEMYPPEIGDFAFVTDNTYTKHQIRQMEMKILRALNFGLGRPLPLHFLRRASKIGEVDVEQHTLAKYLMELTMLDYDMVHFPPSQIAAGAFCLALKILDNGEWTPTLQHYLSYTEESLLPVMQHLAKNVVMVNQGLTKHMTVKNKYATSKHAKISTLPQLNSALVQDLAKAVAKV

For `C[C@@H](Nc1nc(Nc2ccc(S(C)=NS(=O)(=O)c3ccccc3)cc2)ncc1Br)C(C)(C)O` (mixture of isomers) [Example 15, (RS)—S-{4-[(5-Bromo-4-{[(R)-2-hydroxy-1,2-dimethylpropyl]amino}pyrimidin-2-yl)amino]phenyl}-S-methyl-N-(phenylsulphonyl)sulphimide], the IC50 on Aurora-C amounted to 570 nM; against CDK1/CycB it was 110 nM; on CDK2/CycE, 21 nM; on KDR (VEGFR2), 37 nM; in the experiment with MCF7 breast tumour cells, 110 nM. In addition, the “antiproliferative activity, MCF7 (in words)” value in the experiment with MCF7 breast tumour cells is on record as “excellent antiproliferative activity”.

As to `C[C@@H](Nc1nc(Nc2ccc(S(C)=NS(=O)(=O)c3ccc(OC(F)(F)F)cc3)cc2)ncc1Br)C(C)(C)O` (mixture of isomers) [Example 16, (RS)—S-{4-[(5-Bromo-4-{[(R)-2-hydroxy-1,2-dimethylpropyl]-amino}pyrimidin-2-yl)amino]phenyl}-S-methyl-N-{[4-(trifluoromethoxy)phenyl]-sulphonyl}sulphimide], the IC50 at Aurora-C was 1800 nM; against CDK1/CycB, 260 nM; on CDK2/CycE it was 72 nM; at KDR (VEGFR2), 150 nM; in the experiment on MCF7 breast tumour cells, 170 nM. The “antiproliferative activity, MCF7 (in words)” value in the experiment with MCF7 breast tumour cells is “excellent antiproliferative activity”.

Turning to `C[C@@H](Nc1nc(Nc2ccc(S(C)=NS(C)(=O)=O)cc2)ncc1Br)C(C)(C)O` (mixture of isomers) [Example 18, (RS)—S-{4-[(5-Bromo-4-{[(R)-2-hydroxy-1,2-dimethylpropyl]amino}pyrimidin-2-yl)amino]phenyl}-N-mesyl-S-methylsulphimide], the IC50 at Aurora-C came to 400 nM; against CDK1/CycB, 50 nM; at CDK2/CycE it was 6 nM; at KDR (VEGFR2), 35 nM; in the experiment with MCF7 breast tumour cells, 170 nM.

Turning to `CC(=O)Nc1nnc(S(=O)(=O)N=S(C)c2ccc(Nc3ncc(Br)c(N[C@H](C)C(C)(C)O)n3)cc2)s1` (mixture of isomers) [Example 19, (RS)—N-{[5-(Acetylamino)-1,3,4-thiadiazol-2-yl]sulphonyl}-S-{4-[(5-bromo-4-{[(R)-2-hydroxy-1,2-dimethylpropyl]amino}pyrimidin-2-yl)amino]phenyl}-S-methyl-sulphimide], the IC50 was found to be 1100 nM against Aurora-C; 98 nM against CDK1/CycB; 25 nM against CDK2/CycE; 320 nM at KDR (VEGFR2); 1800 nM in the experiment with MCF7 breast tumour cells.

`CCS(=O)(=O)N=S(C)c1ccc(Nc2ncc(Br)c(N[C@H](C)C(C)(C)O)n2)cc1` (mixture of isomers) [Example 20, (RS)—S-{4-[(5-Bromo-4-{[(R)-2-hydroxy-1,2-dimethylpropyl]amino}pyrimidin-2-yl)amino]phenyl}-N-(ethylsulphonyl)-S-methylsulphimide]: the IC50 against Aurora-C is 250 nM; at CDK1/CycB, 31 nM; against CDK2/CycE it was 10 nM; at KDR (VEGFR2), 35 nM; in the experiment with MCF7 breast tumour cells it was 350 nM.

As to `CCCS(=O)(=O)N=S(C)c1ccc(Nc2ncc(Br)c(N[C@H](C)C(C)(C)O)n2)cc1` (mixture of isomers) [Example 21, (RS)—S-{4-[(5-Bromo-4-{[(R)-2-hydroxy-1,2-dimethylpropyl]amino}pyrimidin-2-yl)amino]phenyl}-S-methyl-N-(propylsulphonyl)sulphimide], the IC50 against Aurora-C stood at 390 nM; against CDK1/CycB, 36 nM; against CDK2/CycE, 12 nM; at KDR (VEGFR2), 49 nM; with MCF7 breast tumour cells it was 310 nM.

For the compound `C[C@@H](Nc1nc(Nc2ccc(S(C)=NS(=O)(=O)C(C)(C)C)cc2)ncc1Br)C(C)(C)O` (mixture of isomers) [Example 22, (RS)—S-{4-[(5-Bromo-4-{[(R)-2-hydroxy-1,2-dimethylpropyl]amino}pyrimidin-2-yl)amino]phenyl}-N-(tert-butylsulphonyl)-S-methylsulphimide], the IC50 is 390 nM against Aurora-C; 46 nM on CDK1/CycB; 22 nM at CDK2/CycE; 44 nM against KDR (VEGFR2); 330 nM with MCF7 breast tumour cells.

Broadly, the IC50 is the midpoint of a concentration-inhibition curve.
